Experimental data: ChEMBL document CHEMBL5244207, “Phenanthrenes: A Promising Group of Plant Secondary Metabolites” (J Nat Prod, 2018)
Values after ≈ are worked out from the molar mass of the structure shown. Blank lines part the entries; values can stand above or below the molecule they belong to.

Experiments:
[1] = tested on: C6; experiment: Neuroprotective activity in rat C6 cells assessed as NGF secretion level; type: functional
[2] = tested on: BV-2; experiment: Antiinflammatory activity in mouse BV2 cells assessed as reduction in LPS-induced nitric oxide production; type: functional, cell-based
[3] = tested on: Trichophyton rubrum; experiment: Antimicrobial activity against Trichophyton rubrum assessed as inhibition zone at 5 ug/disk; type: functional; conditions: read-out: IZ
[4] = tested on: M14; experiment: Cytotoxicity against human M14 cells assessed as reduction in cell viability; type: functional, cell-based
[5] = tested on: NCI-H460; experiment: Cytotoxicity against human NCI-H460 cells assessed as reduction in cell viability; type: functional, cell-based
[6] = Toxicity in brine shrimp assessed as lethality; conditions: artemia salina
[7] = tested on: Rattus norvegicus; experiment: Anxiolytic activity in rat assessed as increase in time spent in open arm at 5 mg/kg by elevated plus maze test; type: functional
[8] = tested on: Rattus norvegicus; experiment: Anxiolytic activity in rat assessed as number of entries in open arm at 5 mg/kg by elevated plus maze test; type: functional
[9] = tested on: Rattus norvegicus; experiment: Anxiolytic activity in rat assessed as head tips at 5 mg/kg by elevated plus maze test; type: functional
[10] = tested on: RAW264.7; experiment: Antiinflammatory activity in mouse RAW264.7 cells assessed as reduction in LPS-induced nitric oxide production; type: functional, cell-based
[11] = tested on: Trichophyton rubrum; experiment: Antimicrobial activity against Trichophyton rubrum assessed as inhibition zone at 10 ug/disk; type: functional; conditions: read-out: IZ
[12] = tested on: RAW264.7; experiment: Antiinflammatory activity against mouse RAW264.7 cells assessed as inhibition of LPS-induced COX1 expression; type: functional, cell-based
[13] = tested on: RAW264.7; experiment: Antiinflammatory activity against mouse RAW264.7 cells assessed as inhibition of LPS-induced COX2 expression; type: functional, cell-based
[14] = Hemolytic activity in human Neutrophil at 10 uM relative to control; type: toxicity, cell-based
[15] = Hemolytic activity in human Neutrophil assessed as hemolysis rate at 10 uM relative to control; type: toxicity, cell-based; conditions: human neutrophils, read-out: Activity
[16] = Antioxidant activity assessed as DPPH radical scavenging activity incubated for 30 mins by spectrophotometric analysis; type: functional
[17] = tested on: Staphylococcus aureus; experiment: Antibacterial activity against Staphylococcus aureus assessed as inhibition of bacterial growth; type: functional, organism-based
[18] = tested on: Staphylococcus epidermidis; experiment: Antibacterial activity against Staphylococcus epidermidis assessed as reduction in bacterial growth; type: functional, organism-based

IC50 [2]: 19.6 µM
Compound: COc1cc2c(ccc3cc(OC)c(O)c(OC)c32)cc1O
Activity [1]: 162.4%

Compound: CC(=O)N1CCN(c2ccc(OCC3COC(Cn4ccnc4)(c4ccc(Cl)cc4Cl)O3)cc2)CC1 (stereo not given) [KETOCONAZOLE]
zone of inhibition at 5 µg/disc [3]: 15.7 mm

Compound: COC1=CC(=O)c2c(ccc3cccc(O)c23)C1=O
IC50 [4]: 1.5 µM
IC50 [5]: 5 µM

Compound: O=P1(N(CCCl)CCCl)NCCCO1 (stereo not given) [CYCLOPHOSPHAMIDE ANHYDROUS]
LC50 [6]: 16.4 µg/mL (≈ 62.8 µM)

IC50 ([10]; Mus musculus, RAW264.7): 15.6 µM
Compound: C=Cc1c(C)c(O)cc2ccc3c(C)c(O)ccc3c12
Time [7]: 56.54 s
Activity [8]: >6
Activity [9]: >80

Compound: COc1cc2c(c(OC)c1O)-c1c(ccc(O)c1O)CC2
zone of inhibition at 10 µg/disc [11]: 12.7 mm

IC50 [12]: 0.08 µM
IC50 [13]: 0.27 µM
Compound: COC1=CC(=O)c2c(ccc3cc(OC)c(O)cc23)C1=O

IC50 [16]: 1.7 µM
IC50 ([10]; Mus musculus, RAW264.7): 12.7 µM
IC50 ([10]; raw264.7): 10.5 µM
Compound: C=Cc1cc(O)cc2ccc3c(C)c(O)ccc3c12
Activity [14]: 5.3
hemolysis at 10 µM [15]: 11.3%

Compound: COc1cc(O)c2c(c1C)CCc1cc(O)c(C)cc1-2
IC50 [17]: 12.5 µg/mL (≈ 46.2 µM)
IC50 [18]: 12.5 µg/mL (≈ 46.2 µM)
